Counter-ions that a name gives are not always drawn. Marks after values point to notes of the source that are not given here.

Drawing on PMC7285181 (Pharmaceutics, 2020), this text covers Mortality for 1 compound.

The test has as its system compound 48/80-induced systemic anaphylaxis-like reactions in mice. Description: Compound 48/80-induced systemic anaphylaxis-like reactions in mice (mortality). The test is classed as in vivo. Particulars: n = 8, oral 1 h before i.p. compound 48/80 (8 mg/kg), mortality within 1 h. The method, then: Five groups each of 8 male albino mice were used in this experiment. Mice were housed 4 per cage and were maintained at room temperature (25 ± 0.5 °C). All experiments were performed in compliance with the guidelines approved by the ethics committee of Faculty of Pharmacy, The British University in Egypt (approval number Ex-1904). The mice in the first group were administered phosphate buffer saline orally (negative control group), while the second group were administered phosphate buffer saline 1 hour prior to an intraperitoneal injection of 8 mg/kg of the mast cell degranulator compound 48/80 which induces systemic anaphylaxis-like reactions in mice (positive control group). […] The mortality was monitored for 1 h after induction of anaphylactic shock. After the mortality test, blood was obtained from the heart of each mouse by cardiac puncture.

Compound `CC(C)(C(=O)O)c1ccc(C(O)CCCN2CCC(C(O)(c3ccccc3)c3ccccc3)CC2)cc1` (stereo not shown) [FEX powder, Fexofenadine HCl] gave a Mortality of 62.5% *.
